Three compounds from ChEMBL document CHEMBL1221193, “Deconstructing fragment-based inhibitor discovery” (Nat Chem Biol, 2006) can be followed below.

The target in the assay is Beta-lactamase (Escherichia coli K-12, UniProt P00811). The experiment in a line: Inhibition of Escherichia coli AmpC assessed as nitrocefin hydrolysis by UV-Vis spectrophotometry.
Beta-lactamase, sequence (P00811 whole entry): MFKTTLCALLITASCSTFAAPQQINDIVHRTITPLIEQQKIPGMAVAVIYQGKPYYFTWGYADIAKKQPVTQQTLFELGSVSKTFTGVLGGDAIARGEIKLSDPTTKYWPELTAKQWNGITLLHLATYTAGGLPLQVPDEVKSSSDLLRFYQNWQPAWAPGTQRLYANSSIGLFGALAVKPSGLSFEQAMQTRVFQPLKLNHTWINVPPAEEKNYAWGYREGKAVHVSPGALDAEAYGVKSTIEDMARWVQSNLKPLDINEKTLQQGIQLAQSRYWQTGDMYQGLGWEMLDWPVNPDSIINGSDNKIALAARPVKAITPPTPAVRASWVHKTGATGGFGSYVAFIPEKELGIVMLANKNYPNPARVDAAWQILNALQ
`CS(=O)(=O)Nc1ccc(C(=O)O)cc1`: the Ki was 10 mM.
In the case of `O=C(O)c1cccs1` [THIOPHENE CARBOXYLIC ACID] it was 40 mM.
For `O=C(O)c1ccc(NS(=O)(=O)c2ccsc2C(=O)O)c(O)c1`, the Ki turned out to be 0.001 mM.
